The values below are quoted from earlier work in US20050020601A1, “Novel pyrazinones as CRF1 receptor antagonists” (Pfizer Inc, priority 2003, published 2005).

The subject of one data set is rats. As to conditions: for effect on the "anxiogenic" effects/actions of CRF: conflict test.
Data set [1] deals with cultured human epidermal keratinocyte cells.

On to `CCOC(=O)c1ncn2c1CN(C)C(=O)c1cc(F)ccc1-2` [Ro 15-1788], for which the “effect on the "anxiogenic" effects/actions of CRF” value with rats is “reversed the effects of CRF in a dose-dependent manner”. Besides, the behavioral activity alone result in the data set with rats (operant conflict test, compound alone) is “without behavioral activity alone”.

With `CCN(c1nc(C)cc(N2CC=C(c3cccc(F)c3)CC2)n1)c1ccc(C(C)C)cc1SC` [2-[N-(2-methylthio-4-isopropylphenyl)-N-ethylamino]-4-[4-(3-fluorophenyl)-1,2,3,6-tetrahydropyridine-1-yl]-6-methylpyrimidine], the keratinocyte cell proliferation entry in data set [1] is “keratinocyte cell proliferation promoting effect”.

Turning to `CNC(=O)c1cc2c(cn1)[nH]c1ccccc12` [FG 7142], the “effect on the "anxiogenic" effects/actions of CRF” value with rats was “enhanced the actions of CRF”.
